US20090011424A1, “Cancer-suppressing agents” (Tokyo Medical and Dental University, priority 2005, published 2009)

System: SMS-KAN cell
Assay: messenger RNA expression analysis, AceGene Human oligo chip 30 K, NR1I2-expressing clone B1 vs control clone
Format: cell-based
Conditions: 2nd: Cy5-B1/Cy3-control
From the text: The NR1I2 gene has been known as a transcriptional factor. Thus, it is possible to know what type of gene expression is controlled by obtaining messenger RNAs from cells causing NR1I2 protein expression and cells not causing such expression, and comparing the expression levels thereof with each other. As described above, the NR1I2 gene protein may have an effect of inhibiting cancer. […] Therefore, pCMV-Tag3 vector not containing a foreign gene as a control was introduced into SMS-KAN cell, and pCMV-Tag3-VP-NR1I2 containing the NR1I2 gene as a test sample was introduced into SMS-KAN cell. As a result, a control cell clone and a cell clone B1 permanently causing NR1I2 protein expression were obtained. Thereafter, analysis of messenger RNA expression was carried out using these two types of cells and an AceGene Human oligo chip 30 K (DNA Chip Research Inc.), with which the expression levels of 30,000 human genes can be observed (Inoue. J., et al. Am J. Pathol. 165. 71. 2004). A complementary strand DNA (complimentary DNA) was prepared, into which aminoallyl-dUTP (Ambion Inc.) was incorporated using an Oligo (dT) 12-18 primer. Then, the aminoallyl group was labeled with reactive Cy3 (cyanin 3) and Cy5 (cyanin 5) (Amersham Biosciences) via a coupling reaction. Hybridization was performed twice (1st: Cy3-B1/Cy5-control; 2nd: Cy5-B1/Cy3-control). Signals were measured using a GenePix 4000B (Axon Instruments) so as to be analyzed by GenePix Pro 4.1 software (Axon Instruments). Tables 3 and 4 are lists of genes, where in the cases of SMS-KAN cells into which the NR1I2 gene had been introduced in the two experiments, the expression levels were 1.5-fold or greater than the expression level in the case of a control cell clone.

Substance: NR1I2 gene: human-derived gene, nuclear receptor subfamily 1, group I, member 2 (pregnane X receptor, PXR), nucleotide sequence SEQ ID NO: 1
- ADAMTS2 expression level Ratio 2nd: 1.60
- ADNP expression level Ratio 2nd: 1.63
- AP3S2 expression level Ratio 2nd: 2.55
- APEG1 expression level Ratio 2nd: 1.91
- APOA1 expression level Ratio 2nd: 2.00
- APP expression level Ratio 2nd: 2.05
- ARHC expression level Ratio 2nd: 1.52
- ARL2 expression level Ratio 2nd: 1.53
- ASCL2 expression level Ratio 2nd: 2.46
- ASH1 expression level Ratio 2nd: 1.83
- B4GALT5 expression level Ratio 2nd: 1.56
- BARD1 expression level Ratio 2nd: 1.93
- BCAT2 expression level Ratio 2nd: 1.63
- BLP2 expression level Ratio 2nd: 1.53
- BMP15 expression level Ratio 2nd: 1.52
- C6orf25 expression level Ratio 2nd: 1.76
- CCNA1 expression level Ratio 2nd: 1.92
- CDC7L1 expression level Ratio 2nd: 1.86
- CISH expression level Ratio 2nd: 2.17
- CORO2A expression level Ratio 2nd: 1.73
- Cab45 expression level Ratio 2nd: 1.86
- DKFZp434G05 expression level Ratio 2nd: 1.58
- DKKL1 expression level Ratio 2nd: 1.56
- DNA12 expression level Ratio 2nd: 1.54
- EPHX1 expression level Ratio 2nd: 2.25
- ERCC1 expression level Ratio 2nd: 1.84
- ETR101 expression level Ratio 2nd: 1.67
- EXT1 expression level Ratio 2nd: 1.89
- FLJ10737 expression level Ratio 2nd: 1.54
- FLJ12389 expression level Ratio 2nd: 2.19
- FLJ13197 expression level Ratio 2nd: 2.99
- FLJ13479 expression level Ratio 2nd: 1.94
- FLJ20288 expression level Ratio 2nd: 1.83
- FLJ20555 expression level Ratio 2nd: 1.53
- FLJ23462 expression level Ratio 2nd: 1.67
- FOFR3 expression level Ratio 2nd: 1.59
- GLI2 expression level Ratio 2nd: 2.72
- GNE expression level Ratio 2nd: 1.90
- GSTT2 expression level Ratio 2nd: 3.28
- GUCY1A3 expression level Ratio 2nd: 1.63
- HHEX expression level Ratio 2nd: 1.57
- HNT expression level Ratio 2nd: 1.57
- HPCL2 expression level Ratio 2nd: 1.74
- ICAM5 expression level Ratio 2nd: 1.54
- IFIT4 expression level Ratio 2nd: 1.54
- INSL6 expression level Ratio 2nd: 1.68
- IRC039700 expression level Ratio 2nd: 2.15
- KCNJ15 expression level Ratio 2nd: 1.91
- KIAA0161 expression level Ratio 2nd: 1.56
- KIAA0212 expression level Ratio 2nd: 2.04
- LBP-9 expression level Ratio 2nd: 1.95
- LDB1 expression level Ratio 2nd: 1.60
- LICAM expression level Ratio 2nd: 1.89
- LILRB5 expression level Ratio 2nd: 1.76
- LOC51024 expression level Ratio 2nd: 1.69
- LRP8 expression level Ratio 2nd: 1.54
- LZLP expression level Ratio 2nd: 1.61
- MAFG expression level Ratio 2nd: 2.55
- MGC2306 expression level Ratio 2nd: 1.58
- MGC2941 expression level Ratio 2nd: 1.93
- MPP6 expression level Ratio 2nd: 1.70
- MT-ACT48 expression level Ratio 2nd: 1.61
- OCM expression level Ratio 2nd: 1.72
- OMP expression level Ratio 2nd: 1.58
- OPA3 expression level Ratio 2nd: 2.49
- ORC5L expression level Ratio 2nd: 1.69
- ORM1 expression level Ratio 2nd: 1.60
- PCDHA4 expression level Ratio 2nd: 1.97
- PCDHB10 expression level Ratio 2nd: 1.66
- PDCD8 expression level Ratio 2nd: 2.03
- PFKFB4 expression level Ratio 2nd: 4.97
- PGAM1 expression level Ratio 2nd: 2.16
- PITPN expression level Ratio 2nd: 1.75
- PLA2G2A expression level Ratio 2nd: 3.05
- PLCE1 expression level Ratio 2nd: 2.94
- PLEKHA1 expression level Ratio 2nd: 1.56
- PRO2121 expression level Ratio 2nd: 1.91
- PRO2831 expression level Ratio 2nd: 1.53
- RDH5 expression level Ratio 2nd: 1.64
- RP1 expression level Ratio 2nd: 1.56
- RPL39L expression level Ratio 2nd: 2.34
- RPS16 expression level Ratio 2nd: 1.59
- SC65 expression level Ratio 2nd: 1.58
- SCD expression level Ratio 2nd: 1.77
- SCN2B expression level Ratio 2nd: 1.54
- SLC22A11 expression level Ratio 2nd: 1.68
- SNAP91 expression level Ratio 2nd: 3.43
- STK11 expression level Ratio 2nd: 1.64
- SURF1 expression level Ratio 2nd: 1.95
- TCEA1 expression level Ratio 2nd: 1.56
- TGM2 expression level Ratio 2nd: 1.62
- TIMM10 expression level Ratio 2nd: 1.89
- TLAL1 expression level Ratio 2nd: 2.37
- TMPRSS4 expression level Ratio 2nd: 1.57
- TOP3B expression level Ratio 2nd: 1.61
- TPARL expression level Ratio 2nd: 1.58
- TRPV4 expression level Ratio 2nd: 1.80
- TSPAN-1 expression level Ratio 2nd: 1.69
- UXT expression level Ratio 2nd: 2.94
- WHSC2 expression level Ratio 2nd: 1.67
